Data taken from patent US9624208B2, “Benzoxazolinone compounds with selective activity in voltage-gated sodium channels” (Merck Sharp & Dohme Corp., priority 2012, dated 2017).
“And” between values parts separate entries of the source, which are not always exact repeats. Equal entries are not always repeated.

Experiments:
[1] = biological target: T1, human Nav1.5 (Homo sapiens, UniProt Q14524); assay: PatchXpress sodium current measurement, inactivated state block, Nav1.5; type: cell-based; conditions: determined by PatchXpress measurement, HEK 293 cells
T1 construct: expressed in transfected cells
T1 sequence (Q14524 whole entry): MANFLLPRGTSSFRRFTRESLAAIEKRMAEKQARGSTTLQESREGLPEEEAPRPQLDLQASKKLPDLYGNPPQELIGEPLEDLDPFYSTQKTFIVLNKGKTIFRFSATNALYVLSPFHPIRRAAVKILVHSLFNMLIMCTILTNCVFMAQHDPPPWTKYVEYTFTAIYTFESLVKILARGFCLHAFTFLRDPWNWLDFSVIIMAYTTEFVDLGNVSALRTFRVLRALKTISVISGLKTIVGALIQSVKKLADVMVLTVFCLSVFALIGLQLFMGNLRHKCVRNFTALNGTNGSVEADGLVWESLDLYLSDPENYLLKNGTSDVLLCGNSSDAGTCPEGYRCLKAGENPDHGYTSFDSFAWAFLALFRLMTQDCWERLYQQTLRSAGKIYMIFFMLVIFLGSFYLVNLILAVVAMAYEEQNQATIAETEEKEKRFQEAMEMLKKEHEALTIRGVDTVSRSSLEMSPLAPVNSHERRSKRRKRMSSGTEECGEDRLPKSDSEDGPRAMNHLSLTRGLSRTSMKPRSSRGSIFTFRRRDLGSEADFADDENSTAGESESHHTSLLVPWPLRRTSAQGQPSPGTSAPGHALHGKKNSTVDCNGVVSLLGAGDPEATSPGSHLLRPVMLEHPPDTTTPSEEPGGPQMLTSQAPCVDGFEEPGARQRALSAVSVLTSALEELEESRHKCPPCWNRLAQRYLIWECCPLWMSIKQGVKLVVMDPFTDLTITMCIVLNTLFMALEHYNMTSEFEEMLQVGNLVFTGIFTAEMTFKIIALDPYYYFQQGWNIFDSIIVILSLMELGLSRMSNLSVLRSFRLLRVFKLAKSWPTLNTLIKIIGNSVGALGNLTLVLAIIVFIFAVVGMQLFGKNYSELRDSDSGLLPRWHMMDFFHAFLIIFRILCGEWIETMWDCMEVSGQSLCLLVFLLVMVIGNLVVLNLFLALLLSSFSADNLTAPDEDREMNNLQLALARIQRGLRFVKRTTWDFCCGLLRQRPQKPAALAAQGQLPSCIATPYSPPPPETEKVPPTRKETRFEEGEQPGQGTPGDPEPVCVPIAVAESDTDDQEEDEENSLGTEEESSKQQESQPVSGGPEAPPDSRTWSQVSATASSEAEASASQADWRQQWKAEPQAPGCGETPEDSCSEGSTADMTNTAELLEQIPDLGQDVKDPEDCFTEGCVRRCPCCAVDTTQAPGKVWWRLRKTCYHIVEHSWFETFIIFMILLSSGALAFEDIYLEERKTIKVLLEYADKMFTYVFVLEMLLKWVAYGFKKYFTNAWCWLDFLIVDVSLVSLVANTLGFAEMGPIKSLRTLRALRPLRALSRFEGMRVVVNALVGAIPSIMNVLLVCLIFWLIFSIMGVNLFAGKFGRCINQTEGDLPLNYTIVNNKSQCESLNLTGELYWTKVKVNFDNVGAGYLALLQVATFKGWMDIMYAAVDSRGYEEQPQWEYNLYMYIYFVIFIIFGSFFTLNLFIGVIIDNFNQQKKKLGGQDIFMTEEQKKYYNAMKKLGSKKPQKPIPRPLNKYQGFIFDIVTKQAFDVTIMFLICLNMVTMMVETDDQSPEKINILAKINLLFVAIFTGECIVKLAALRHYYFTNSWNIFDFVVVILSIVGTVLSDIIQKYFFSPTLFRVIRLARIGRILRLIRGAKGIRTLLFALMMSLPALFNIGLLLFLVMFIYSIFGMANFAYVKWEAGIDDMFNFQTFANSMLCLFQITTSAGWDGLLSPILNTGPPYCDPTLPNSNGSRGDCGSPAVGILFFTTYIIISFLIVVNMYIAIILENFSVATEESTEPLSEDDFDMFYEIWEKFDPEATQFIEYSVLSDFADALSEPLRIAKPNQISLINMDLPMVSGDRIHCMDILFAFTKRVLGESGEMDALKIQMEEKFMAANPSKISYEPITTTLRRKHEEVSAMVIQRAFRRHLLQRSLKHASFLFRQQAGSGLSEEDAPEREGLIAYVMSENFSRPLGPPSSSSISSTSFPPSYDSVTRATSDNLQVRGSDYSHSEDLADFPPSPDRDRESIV
Description: (§1) Cell Based Assays for Nav 1.7 and Nav 1.5 Activity
(§2) Compounds were tested on human Nav1.7 and Nav1.5 channels stably expressed in HEK 293 cells.
(§3) Sodium Current Measurements on the PatchXpress 7000:
(§4) To measure inactivated state block of sodium channels, test compounds were characterized in an automated PatchXpress® assay (Molecular Devices) using a double-pulse protocol on human Nav1.7 and Nav1.5 channels stably expressed in HEK 293 cells. Cells were held at a potential 20 mV negative to the potential at which ˜50% of the channels are inactivated. A 8000 ms pre-pulse 7 mV positive to the potential at which ˜50% of the channels are inactivated was given followed by a hyperpolarizing 2 ms pulse to −120 mV and a 20 ms test pulse to −20 mV. The protocol was applied to cells in the absence, presence of compound and after washout. The temperature of PatchXpress® instruments was maintained at 22° C. The following recording solutions were used. Internal solution (mM): 30 CsCl, 5 HEPES, 10 EGTA, 120 CsF, 5 NaF, 2 MgCl2, pH 7.3 with CsOH. External solution (mM): 120 NMDG, 40 NaCl, 1 KCl, 0.5 MgCl2, 5 HEPES, 2.7 CaCl2, pH 7.5 with NMDG-OH. Estimated IC50 values were calculated based on at least two compound concentrations tested. For all electrophysiology experiments, offline analysis was used to correct for current rundown and to determine percent inhibition as a function of drug concentration. IC50 values were determined by fitting to the Hill equation.

[2] = biological target: T2, human Nav1.7 (Homo sapiens, UniProt Q15858); assay: PatchXpress sodium current measurement, inactivated state block, Nav1.7; type: cell-based; conditions: channels stably expressed in HEK 293 cells, double-pulse protocol, 22° C., read-out: potency for the Nav 1.7 sodium ion channel (1.7=)
T2 construct: expressed in transfected cells
T2 sequence (Q15858 whole entry): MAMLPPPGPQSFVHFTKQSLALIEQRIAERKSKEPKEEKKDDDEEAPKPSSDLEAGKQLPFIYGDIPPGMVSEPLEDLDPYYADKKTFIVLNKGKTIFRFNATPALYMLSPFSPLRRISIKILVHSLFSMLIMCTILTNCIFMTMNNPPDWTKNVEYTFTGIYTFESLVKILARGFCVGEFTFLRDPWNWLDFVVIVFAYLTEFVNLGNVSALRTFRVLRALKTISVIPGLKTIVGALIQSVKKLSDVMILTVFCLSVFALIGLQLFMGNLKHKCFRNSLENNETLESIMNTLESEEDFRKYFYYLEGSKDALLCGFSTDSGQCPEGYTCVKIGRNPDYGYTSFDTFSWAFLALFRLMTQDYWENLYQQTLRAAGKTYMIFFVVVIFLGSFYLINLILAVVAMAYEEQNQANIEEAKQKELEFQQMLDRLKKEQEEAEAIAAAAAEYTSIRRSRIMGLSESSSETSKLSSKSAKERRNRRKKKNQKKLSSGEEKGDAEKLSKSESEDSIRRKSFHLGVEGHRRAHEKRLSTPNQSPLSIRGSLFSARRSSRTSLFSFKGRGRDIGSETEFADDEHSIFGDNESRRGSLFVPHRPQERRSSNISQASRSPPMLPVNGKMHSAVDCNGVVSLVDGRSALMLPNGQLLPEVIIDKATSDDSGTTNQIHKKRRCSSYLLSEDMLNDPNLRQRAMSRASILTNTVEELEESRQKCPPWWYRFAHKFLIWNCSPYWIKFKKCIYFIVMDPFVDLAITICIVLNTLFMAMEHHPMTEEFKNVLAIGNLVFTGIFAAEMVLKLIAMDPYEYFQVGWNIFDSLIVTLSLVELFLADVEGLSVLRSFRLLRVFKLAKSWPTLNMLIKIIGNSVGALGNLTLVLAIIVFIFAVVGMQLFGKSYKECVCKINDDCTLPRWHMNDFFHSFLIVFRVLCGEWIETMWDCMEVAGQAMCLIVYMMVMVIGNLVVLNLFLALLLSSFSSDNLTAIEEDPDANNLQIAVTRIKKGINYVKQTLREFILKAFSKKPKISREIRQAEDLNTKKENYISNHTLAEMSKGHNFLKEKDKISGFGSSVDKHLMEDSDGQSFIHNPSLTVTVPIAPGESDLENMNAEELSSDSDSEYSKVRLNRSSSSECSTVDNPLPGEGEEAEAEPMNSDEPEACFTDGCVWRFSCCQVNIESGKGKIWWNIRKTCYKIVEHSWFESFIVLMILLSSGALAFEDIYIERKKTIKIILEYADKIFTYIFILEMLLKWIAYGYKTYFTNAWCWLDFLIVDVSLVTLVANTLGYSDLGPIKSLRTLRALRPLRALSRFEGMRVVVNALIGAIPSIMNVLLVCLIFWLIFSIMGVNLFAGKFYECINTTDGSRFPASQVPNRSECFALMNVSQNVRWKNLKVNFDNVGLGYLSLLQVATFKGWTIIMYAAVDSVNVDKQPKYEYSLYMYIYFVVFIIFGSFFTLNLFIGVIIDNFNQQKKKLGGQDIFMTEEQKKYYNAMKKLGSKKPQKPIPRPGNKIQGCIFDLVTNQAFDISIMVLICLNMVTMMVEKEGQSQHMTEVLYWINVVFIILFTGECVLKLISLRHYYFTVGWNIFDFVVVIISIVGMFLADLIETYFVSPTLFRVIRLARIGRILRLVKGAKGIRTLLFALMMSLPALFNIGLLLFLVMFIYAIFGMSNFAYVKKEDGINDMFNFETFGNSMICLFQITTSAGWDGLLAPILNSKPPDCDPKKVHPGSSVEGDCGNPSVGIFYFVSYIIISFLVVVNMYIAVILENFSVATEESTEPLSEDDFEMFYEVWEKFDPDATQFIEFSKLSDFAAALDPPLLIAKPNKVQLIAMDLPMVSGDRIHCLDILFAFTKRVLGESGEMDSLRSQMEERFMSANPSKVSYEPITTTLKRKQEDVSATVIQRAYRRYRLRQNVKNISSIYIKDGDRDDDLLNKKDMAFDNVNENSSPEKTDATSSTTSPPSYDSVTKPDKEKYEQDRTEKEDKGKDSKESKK
Description: as §1, §2, §3, §4

SMILES	IC50 [2]	ratio of Nav 1.5:Nav 1.7 potency [1]
Cc1cc2c(cc1S(=O)(=O)Nc1cccc(F)n1)oc(=O)n2[C@H](C)c1cccc(Br)c1 [Ex18-6, 3-[(1R)-1-(3-bromophenyl)ethyl]-N-(6-fluoropyridin-2-yl)-5-methyl-2-oxo-2,3-dihydro-1,3-benzoxazole-6-sulfonamide]	0.057 µM	30
NC1CCc2cccc(Cn3c(=O)oc4cc(S(=O)(=O)Nc5cccc(F)n5)ccc43)c2C1 (single isomer, unassigned) [Ex13-6, (S or R)-3-[(7-amino-5,6,7,8-tetrahydronaphthalen-1-yl)methyl]-N-(6-fluoropyridin-2-yl)-2-oxo-2,3-dihydro-1,3-benzoxazole-6-sulfonamide]	0.147 µM	43
Cc1cc2c(cc1S(=O)(=O)Nc1cccc(F)n1)oc(=O)n2[C@H](C)c1cccc(C#CCN)c1 [Ex21-23, 3-{(1R)-1-[3-(3-aminoprop-1-yn-1-yl)phenyl]ethyl}-N-(6-fluoropyridin-2-yl)-5-methyl-2-oxo-2,3-dihydro-1,3-benzoxazole-6-sulfonamide]	0.09 µM	251
C[C@H](c1ccccc1C1(O)CNC1)n1c(=O)oc2cc(S(=O)(=O)Nc3cccc(F)n3)c(F)cc21 [Ex12-4, (R)-5-Fluoro-N-(6-fluoropyridin-2-yl)-3-(1-(2-(3-hydroxyazetidin-3-yl)phenyl)ethyl)-2-oxo-2,3-dihydrobenzo[d]oxazole-6-sulfonamide]	0.4 µM	75
C[C@H](c1cccc(C2=CCCNC2)c1)n1c(=O)oc2cc(S(=O)(=O)Nc3cccc(F)n3)c(F)cc21 [Ex7-11, 5-fluoro-N-(6-fluoropyridin-2-yl)-2-oxo-3-{(1R)-1-[3-(1,2,5,6-tetrahydropyridin-3-yl)phenyl]ethyl}-2,3-dihydro-1,3-benzoxazole-6-sulfonamide]	0.065 µM	461
C[C@H](c1cccc(C#CCN2CCC2)c1)n1c(=O)oc2cc(S(=O)(=O)Nc3cccc(F)n3)c(F)cc21 [Ex21-13, 3-[(1R)-1-{3-[3-(azetidin-1-yl)prop-1-yn-1-yl]phenyl}ethyl]-5-fluoro-N-(6-fluoropyridin-2-yl)-2-oxo-2,3-dihydro-1,3-benzoxazole-6-sulfonamide]	0.116 µM	258
C[C@H](c1ccccc1C1(F)CNC1)n1c(=O)oc2cc(S(=O)(=O)Nc3cccc(F)n3)c(F)cc21 [Ex12-6, (R)-5-Fluoro-3-(1-(2-(3-fluoroazetidin-3-yl)phenyl)ethyl)-N-(6-fluoropyridin-2-yl)-2-oxo-2,3-dihydrobenzo[d]oxazole-6-sulfonamide]	0.046 µM	648
O=c1oc2cc(S(=O)(=O)Nc3cccc(F)n3)c(F)cc2n1Cc1cccc2c1CNCC2F (single isomer, unassigned; enantiomer 2) [Ex5-11, (S or R)-5-fluoro-N-(6-fluoropyridin-2-yl)-3-[(4-fluoro-1,2,3,4-tetrahydroisoquinolin-8-yl)methyl]-2-oxo-2,3-dihydro-1,3-benzoxazole-6-sulfonamide (enantiomer 2)]	0.727 µM	54
C[C@H](c1ccccc1CN)n1c(=O)oc2cc(S(=O)(=O)Nc3cccc(F)n3)c(F)cc21 [Ex9-1, (R)-3-(1-(2-(aminomethyl)phenyl)ethyl)-5-fluoro-N-(6-fluoropyridin-2-yl)-2-oxo-2,3-dihydrobenzo[d]oxazole-6-sulfonamide]	0.024 µM	1525

Now from value to molecule, other results behind:

IC50 [2]	SMILES	ratio of Nav 1.5:Nav 1.7 potency [1]
0.236 µM	C[C@H](c1ccccc1C#CCN1CCC1)n1c(=O)oc2cc(S(=O)(=O)Nc3cccc(F)n3)c(F)cc21 [Ex8-10, 3-{(1R)-1-[2-(3-azetidin-1-ylprop-1-yn-1-yl)phenyl]ethyl}-5-fluoro-N-(6-fluoropyridin-2-yl)-2-oxo-2,3-dihydro-1,3-benzoxazole-6-sulfonamide]	127
0.65 µM	O=c1oc2cc(S(=O)(=O)Nc3cccc(F)n3)c(F)cc2n1C1CCCc2ccc(F)cc21 (stereo not shown) [Ex4-5, 5-fluoro-N-(6-fluoropyridin-2-yl)-3-(7-fluoro-1,2,3,4-tetrahydronaphthalen-1-yl)-2-oxo-2,3-dlihydro-1,3-benzoxazole-6-sulfonamide]	101
0.961 µM	O=c1oc2cc(S(=O)(=O)Nc3cccc(F)n3)c(F)cc2n1Cc1cccc2c1CNCC2F (single isomer, unassigned; enantiomer 1) [Ex5-10, (R or S)-5-fluoro-N-(6-fluoropyridin-2-yl)-3-[(4-fluoro-1,2,3,4-tetrahydroisoquinolin-8-yl)methyl]-2-oxo-2,3-dihydro-1,3-benzoxazole-6-sulfonamide (enantiomer 1)]	> 31
0.258 µM	C[C@H](c1cccc(C#CC2(N)CC2)c1)n1c(=O)oc2cc(S(=O)(=O)Nc3cccc(F)n3)c(F)cc21 [Ex21-12, 3-[(1R)-1-{3-[(1-aminocyclopropyl)ethynyl]phenyl}ethyl]-5-fluoro-N-(6-fluoropyridin-2-yl)-2-oxo-2,3-dihydro-1,3-benzoxazole-6-sulfonamide]	116
0.808 µM	C[C@H](c1cccc(C#CCN(C)C)c1)n1c(=O)oc2cc(S(=O)(=O)Nc3cccc(F)n3)c(F)cc21 [Ex21-3, 3-[(1R)-1-{3-[3-(dimethylamino)prop-1-yn-1-yl]phenyl}ethyl]-5-fluoro-N-(6-fluoropyridin-2-yl)-2-oxo-2,3-dihydro-1,3-benzoxazole-6-sulfonamide]	37
0.014 µM	C[C@H](c1ccccc1C#C[C@H]1CCCC[C@H]1N)n1c(=O)oc2cc(S(=O)(=O)Nc3cccc(F)n3)c(F)cc21 [Ex8-3, 3-[(1R)-1-(2-{[(1R,2R)-2-aminocyclohexyl]ethynyl}phenyl)ethyl]-5-fluoro-N-(6-fluoropyridin-2-yl)-2-oxo-2,3-dihydro-1,3-benzoxazole-6-sulfonamide]	2000
0.099 µM	C[C@H](c1cccc2c1CNCC2)n1c(=O)oc2cc(S(=O)(=O)Nc3cccc(F)n3)c(F)cc21.Cl [Ex3-5, (R)-5-fluoro-N-(6-fluoropyridin-2-yl)-2-oxo-3-(1-(1,2,3,4-tetrahydroisoquinolin-8-yl)ethyl)-2,3-dihydrobenzo[d]oxazole-6-sulfonamide hydrochloride]	158
0.407 µM	C[C@H](c1cccc(C#CC2CCCCN2)c1)n1c(=O)oc2cc(S(=O)(=O)Nc3cccc(F)n3)c(F)cc21 (stereo partly drawn) [Ex21-9, 5-fluoro-N-(6-fluoropyridin-2-yl)-2-oxo-3-{(1R)-1-[3-(piperidin-2-ylethynyl)phenyl]ethyl}-2,3-dihydro-1,3-benzoxazole-6-sulfonamide]	74
0.169 µM	C[C@H](c1cccc(CCCN2CCC2)c1)n1c(=O)oc2cc(S(=O)(=O)Nc3cccc(F)n3)c(F)cc21 [Ex22-4, 3-[(1R)-1-{3-[3-(azetidin-1-yl)propyl]phenyl}ethyl]-5-fluoro-N-(6-fluoro-pyridin-2-yl)-2-oxo-2,3-dihydro-1,3-benzoxazole-6-sulfonamide]	178
0.027 µM and 0.018 µM	C[C@H](c1ccccc1CCN)n1c(=O)oc2cc(S(=O)(=O)Nc3cccc(F)n3)c(F)cc21 [Ex24-2, 3-{(1R)-1-[2-(2-aminoethyl)phenyl]ethyl}-5-fluoro-N-(6-fluoropyridin-2-yl)-2-oxo-2,3-dihydro-1,3-benzoxazole-6-sulfonamide]	–
